# Test results: patent US11998028B2, “Polypeptide for hydrolytic cleavage of zearalenone and/or zearalenone derivatives, isolated polynucleotide thereof as well as a polypeptide containing an additive, use of same as well as a process” (priority 2013, dated 2024)
# Tests used:
# [1] = system: estrogenic effect; settings: cited from earlier work
# [2] = system: polypeptide (hydrolase / zonase) with sequence ID no. 1, C-terminal 6×His tag; experiment: Enzyme kinetics of ZEN hydrolysis to HZEN, photometric at 315 nm; type: biochemical; settings: ZEN substrate, 50 mM Tris-HCl pH 8.2, 32° C.
# Protocol: The soluble cell lysate in the case of E. coli and/or the culture supernatant in the case of P. pastoris was/were used for determination of the catalytic properties of the polypeptides. To determine the KM value, vmax, kcat and the specific activity, the polypeptides were selectively enriched chromatographically by standard methods over nickel-Sepharose columns. The determination of the protein concentration was performed by means of standard methods, either being calculated by the BCA method (Pierce BCA Protein Assay KitProd #23225) or preferably photometrically with the specific extinction coefficients for the respective proteins that are available online with the ProtParam program at http://web.expasy.org/protparam (Gasteiger E. et al.; Protein Identification and Analysis Tools on the ExPASy Server, in John M. Walker (ed): The Proteomics Protocols Handbook, Humana Press, 2005, pp. 571-607).
# The preparation, enrichment and purification of the polypeptides and/or variants thereof were performed as described in example 1. Degradation of ZEN to HZEN was measured on the basis of the reduction in absorption at the wavelength of 315 nm. […] The extinction coefficients have a strong dependence on pH and therefore the activity must always be measured precisely at the same pH and preferably also in the same matrix. The measurements were performed in a 50 mM Tris-HCl pH=8.2 buffer solution in quartz cuvettes in a wavelength range of 200 to 2500 nm in a UV-VIS photometer (Hitachi U-2001) at 32° C.
# A 2.08 mM ZEN solution (40 vol % ACN+60 vol % H2O) was used as the ZEN substrate stock solution. To prepare this solution, ZEN in crystalline form (Biopure Standard from Romer Labs, article no. 001109, purity at least 98%) was weighed and dissolved accordingly. The ZEN substrate dilutions (0.79 μM, 1.57 μM, 2.36 μM, 3.14 μM, 4.71 μM, 6.28 μM, 7.85 μM, 9.42 μM, 10.99 μM, 12.56 μM, 14.13 μM, 15.71 μM, 17.28 μM and 18.85 μM) were prepared with 50 mM Tris-HCl pH=8.2. The polypeptide solutions were diluted to a final concentration of approximately 70 ng/mL using 50 mM Tris-HCl buffer pH=8.2. The ZEN substrate dilutions were preheated to 32° C. in a water bath.
# 100 μL portions of the respective ZEN substrate dilution were mixed with 0.2 μL polypeptide solution, and the absorption was measured for 5 minutes, whereupon each combination of polypeptide solution and ZEN substrate dilution was measured at least twice.
# Taking into account the extinction coefficients of ZEN and HZEN, the reaction rate was calculated for each substance concentration on the basis of the slope in the absorption over time.
# The designations “KM value” or “Michaelis-Menten constant” relate to a parameter for describing the enzymatic affinity of the units μM or mM, which are calculated with the help of the linear Hanes plots according to H. Bisswang (2002, Enzyme Kinetics, ISBN 3-527-30343-X, page 19), wherein the function “enzyme kinetics, single substrate” in the SigmaPlot 12.0 program is preferably used for this purpose. The designations “catalytic constant of the enzyme reaction” or “kcat value” relate to a parameter for describing the conversion rate of a polypeptide and/or enzyme, which is given in s^−1 and is preferably calculated with the help of the “enzyme kinetic, single substrate” function of the SigmaPlot 12.0 program. The “maximum enzyme rate” or “vmax value” is given in units of μM/s or mM/s and is determined with the help of the linear Hanes plot by analogy with the KM value, wherein the function “enzyme kinetic, single substrate” of the SigmaPlot 12.0 program is preferably used for this.
# The raw data for determination of the enzyme parameters KM, vmax, kcat and the specific activity are given below for the polypeptide having the sequence ID no. 1.
# [3] = cited from earlier work
# [4] = system: cattle; settings: cited from earlier work
# [5] = system: mammalian animals, in particular pigs; settings: cited from earlier work
# [6] = system: estrogen receptor; settings: cited from earlier work
# [7] = system: pigs; settings: cited from earlier work
# [8] = relatively low acute toxicity; cited from earlier work
compound,measurement,setting,value
"C[C@H]1CCCC(=O)CCCCCc2cc(O)cc(O)c2C(=O)O1 [ZAN, (11S)-15,17-dihydroxy-11-methyl-12-oxabicyclo-[12.4.0]octadeca-1(18),14,16-triene-7,13-dione]",estrogenic effect compared with ZEN,[1],much stronger estrogenic effect than ZEN
"C[C@H]1CCCC(=O)CCC/C=C/c2cc(O)cc(O)c2C(=O)O1 [ZEN, (2E,11S)-15,17-dihydroxy-11-methyl-12-oxabicyclo[12.4.0]octadeca-1(18),2,14,16-tetraene-7,13-dione]",Km,[2]; Average,204 nM
same,Vmax,[2]; Average,0.009343 µM/s
same,kcat,[2]; Average,5.12 s⁻¹
same,Km,[2]; Measurement 1,217 nM
same,Vmax,[2]; Measurement 1,0.00993 µM/s
same,kcat,[2]; Measurement 1,5.44 s⁻¹
same,Km,[2]; Measurement 2,190 nM
same,Vmax,[2]; Measurement 2,0.008756 µM/s
same,kcat,[2]; Measurement 2,4.79 s⁻¹
same,absorption through the mucous membranes,[3]; in particular gastric mucosa and oral mucosa,absorbed rapidly
same,time after oral administration at which ZEN can be detected in blood,[3]; oral administration,30 min
same,ZEN concentration blamed for spontaneous abortions,[4],12 ppm
same,ZEN concentration in feed resulting in developmental disorders,[5],more than 0.5 ppm
same,binding to the estrogen receptor,[6],binds to the estrogen receptor
same,ZEN concentration that can result in hyperestrogenicity,[7],more than 1.5 ppm
same,oral LD50,[8],"up to 20,000 mg/kg body weight"
"C[C@H]1CCC[C@H](O)CCCCCc2cc(O)cc(O)c2C(=O)O1 [α-ZAL, (7R,11S)-7,15,17-trihydroxy-11-methyl-12-oxabicyclo[12.4.0]octa-deca-1(18),14,16-trien-13-one]",estrogenic effect compared with ZEN,[1],much stronger estrogenic effect than ZEN
"C[C@H]1CCC[C@H](O)CCC/C=C/c2cc(O)cc(O)c2C(=O)O1 [α-ZEL, (2E,7R,11S)-7,15,17-trihydroxy-11-methyl-12-oxabicyclo[12.4.0]-octadeca-1(18),2,14,16-tetraen-13-one]",estrogenic effect compared with ZEN,[1],much stronger estrogenic effect than ZEN
